Holding throughout (format): functional
What all share (details): read-out: Activity

In one assay the test system is HT-29. Nature of the assay: Growth inhibition of human HT-29 cells assessed as cell growth at 1 nM relative to untreated control.
In assay [1] the test system is K562. Nature of the assay: Growth inhibition of human K562 cells assessed as cell growth at 100 nM relative to untreated control.
Assay [2] has as its system K562. Put plainly: Growth inhibition of human K562 cells assessed as cell growth at 1 nM relative to untreated control.
A further assay has as its system NCI/ADR-RES. Put plainly: Growth inhibition of human NCI/ADR-RES cells assessed as cell growth at 100 nM relative to untreated control.

Consider `COc1ccc2c(c1)[nH]c1c(C)c(OS(=O)(=O)c3cccc4c(N(C)C)cccc34)ccc12`, for which the growth at 0.001 µM in the assay with HT-29 stood at 98%; in the assay on K562 [2], 103%. The growth at 0.1 µM with K562 [1] came out at 91%; in the assay with NCI/ADR-RES, 93%.

Values taken from ChEMBL document CHEMBL1157638, “Fluorescent epigenetic small molecule induces expression of the tumor suppressor ras-association domain family 1A and inhibits human prostate xenograft” (J Med Chem, 2010).
